Data from ChEMBL document CHEMBL6177931, “Exploring diverse frontiers: Advancements of bioactive 4-aminoquinoline-based molecular hybrids in targeted therapeutics and beyond” (Eur J Med Chem, 2024).
In brackets after ≈: the same amount, converted by molar mass.

Assays:
Cholinesterase [1] = target: T1, Cholinesterase (Equus caballus, UniProt P81908); assay: Inhibition of equine serum BChE using […] as substrate preincubated for 10 mins followed by substrate addition and measured after 5 mins by Ellman's reagent based spectrophotometric analysis
T1 sequence (P81908 whole entry): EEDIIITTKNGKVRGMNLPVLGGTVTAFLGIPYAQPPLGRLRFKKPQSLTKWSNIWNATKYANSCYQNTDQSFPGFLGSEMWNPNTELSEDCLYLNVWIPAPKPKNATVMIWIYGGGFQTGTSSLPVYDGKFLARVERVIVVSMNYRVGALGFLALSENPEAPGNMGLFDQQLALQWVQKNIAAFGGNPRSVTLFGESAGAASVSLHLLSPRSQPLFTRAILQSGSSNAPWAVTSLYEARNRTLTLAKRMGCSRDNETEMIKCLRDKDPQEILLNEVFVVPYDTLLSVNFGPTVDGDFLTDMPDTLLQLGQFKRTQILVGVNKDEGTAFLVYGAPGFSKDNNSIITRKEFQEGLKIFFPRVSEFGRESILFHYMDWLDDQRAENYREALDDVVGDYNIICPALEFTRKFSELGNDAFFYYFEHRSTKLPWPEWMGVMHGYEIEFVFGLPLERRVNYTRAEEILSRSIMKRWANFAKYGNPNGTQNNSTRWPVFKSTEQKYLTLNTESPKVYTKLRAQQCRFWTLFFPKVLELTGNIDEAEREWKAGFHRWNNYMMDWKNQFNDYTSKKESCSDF

Acetylcholinesterase [2] = target: T2, Acetylcholinesterase (Electrophorus electricus, UniProt O42275); assay: Inhibition of electric eel AChE using […] as substrate preincubated for 10 mins followed by substrate addition and measured after 5 mins by Ellman's reagent based spectrophotometric analysis
T2 sequence (O42275 whole entry): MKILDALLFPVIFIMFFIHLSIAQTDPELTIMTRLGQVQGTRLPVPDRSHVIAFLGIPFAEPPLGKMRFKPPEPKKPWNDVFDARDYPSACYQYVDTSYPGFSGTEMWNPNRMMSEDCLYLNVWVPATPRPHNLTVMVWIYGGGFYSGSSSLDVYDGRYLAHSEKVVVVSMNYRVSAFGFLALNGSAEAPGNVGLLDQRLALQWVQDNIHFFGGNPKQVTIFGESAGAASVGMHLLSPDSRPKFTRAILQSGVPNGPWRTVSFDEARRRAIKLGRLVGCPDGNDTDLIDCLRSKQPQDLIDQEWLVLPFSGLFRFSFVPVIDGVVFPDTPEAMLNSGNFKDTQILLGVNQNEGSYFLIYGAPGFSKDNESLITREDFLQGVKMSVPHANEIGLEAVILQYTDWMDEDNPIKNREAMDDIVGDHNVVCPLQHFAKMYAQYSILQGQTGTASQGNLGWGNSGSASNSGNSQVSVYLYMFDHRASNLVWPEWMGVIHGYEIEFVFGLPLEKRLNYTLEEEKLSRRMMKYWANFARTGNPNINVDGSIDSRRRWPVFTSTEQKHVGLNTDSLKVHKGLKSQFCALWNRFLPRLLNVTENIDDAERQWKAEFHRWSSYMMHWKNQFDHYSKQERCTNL

[3] = tested on: Mycobacterium tuberculosis; assay: Antitubercular activity against Mycobacterium tuberculosis H37Rv assessed as inhibition of bacterial growth at 250 microg/ml relative to control; type: functional
[4] = Cytotoxicity against human Huh-7 cells assessed as reduction in cell viability incubated for 2 days by MTT assay; type: toxicity, cell-based; settings: time 2 day
[5] = Inhibition of ConA-induced IL-1beta secretion in female BALB/c mouse splenocyte incubated for 48 hrs by ELISA; type: functional, cell-based
[6] = Inhibition of ConA-induced IL-6 secretion in female BALB/c mouse splenocyte incubated for 48 hrs by ELISA; type: functional, cell-based
[7] = Inhibition of ConA-induced TNF-alpha secretion in female BALB/c mouse splenocyte incubated for 48 hrs by ELISA; type: functional, cell-based
Cholinesterase [8] = target: T1, Cholinesterase; assay: Inhibition of equine serum BChE using […] as substrate measured after 2 mins by Ellman's reagent based spectrophotometric analysis
Acetylcholinesterase [9] = target: T2, Acetylcholinesterase; assay: Inhibition of electric eel AChE using […] as substrate measured after 2 mins by Ellman's reagent based spectrophotometric analysis
[10] = tested on: Mycobacterium tuberculosis; assay: Antitubercular activity against Mycobacterium tuberculosis H37Rv by microplate alamar blue assay; type: functional
Bacillus subtilis [11] = assay: Antibacterial activity against Bacillus subtilis MTCC 619 by agar streak dilution method; type: functional
Staphylococcus aureus [12] = assay: Antibacterial activity against Staphylococcus aureus MTCC 96 by agar streak dilution method; type: functional
Escherichia coli [13] = assay: Antibacterial activity against Escherichia coli MTCC 739 by agar streak dilution method; type: functional
Pseudomonas aeruginosa [14] = assay: Antibacterial activity against Pseudomonas aeruginosa MTCC 741 by agar streak dilution method; type: functional
Cholinesterase [15] = target: T3, Cholinesterase (Homo sapiens, UniProt P06276); assay: Inhibition of human BChE
T3 sequence (P06276 whole entry): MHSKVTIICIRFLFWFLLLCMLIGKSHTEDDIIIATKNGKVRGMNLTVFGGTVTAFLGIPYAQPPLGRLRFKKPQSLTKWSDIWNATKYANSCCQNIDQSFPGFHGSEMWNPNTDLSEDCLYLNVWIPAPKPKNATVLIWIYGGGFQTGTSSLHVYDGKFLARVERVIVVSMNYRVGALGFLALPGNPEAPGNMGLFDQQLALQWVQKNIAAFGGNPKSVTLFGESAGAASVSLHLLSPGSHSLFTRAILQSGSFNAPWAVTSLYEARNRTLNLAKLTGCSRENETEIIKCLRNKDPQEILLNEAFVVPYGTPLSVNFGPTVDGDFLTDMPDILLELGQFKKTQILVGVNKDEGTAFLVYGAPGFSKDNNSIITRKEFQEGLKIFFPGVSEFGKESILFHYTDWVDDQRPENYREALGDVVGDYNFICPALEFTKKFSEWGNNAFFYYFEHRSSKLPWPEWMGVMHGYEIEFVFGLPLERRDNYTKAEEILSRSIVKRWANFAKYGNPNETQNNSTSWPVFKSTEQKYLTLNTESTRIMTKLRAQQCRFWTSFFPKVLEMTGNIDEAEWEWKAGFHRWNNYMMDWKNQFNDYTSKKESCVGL

[16] = tested on: Mycobacterium tuberculosis; assay: Antitubercular activity against Mycobacterium tuberculosis H37Rv; type: functional
Acetylcholinesterase [17] = target: T4, Acetylcholinesterase (Homo sapiens, UniProt P22303); assay: Inhibition of human erythrocyte AChE using acetylthiocholine as substrate preincubated for 5 mins followed by substrate addition by Ellman's reagent based spectrophotometric analysis
T4 sequence (P22303 whole entry): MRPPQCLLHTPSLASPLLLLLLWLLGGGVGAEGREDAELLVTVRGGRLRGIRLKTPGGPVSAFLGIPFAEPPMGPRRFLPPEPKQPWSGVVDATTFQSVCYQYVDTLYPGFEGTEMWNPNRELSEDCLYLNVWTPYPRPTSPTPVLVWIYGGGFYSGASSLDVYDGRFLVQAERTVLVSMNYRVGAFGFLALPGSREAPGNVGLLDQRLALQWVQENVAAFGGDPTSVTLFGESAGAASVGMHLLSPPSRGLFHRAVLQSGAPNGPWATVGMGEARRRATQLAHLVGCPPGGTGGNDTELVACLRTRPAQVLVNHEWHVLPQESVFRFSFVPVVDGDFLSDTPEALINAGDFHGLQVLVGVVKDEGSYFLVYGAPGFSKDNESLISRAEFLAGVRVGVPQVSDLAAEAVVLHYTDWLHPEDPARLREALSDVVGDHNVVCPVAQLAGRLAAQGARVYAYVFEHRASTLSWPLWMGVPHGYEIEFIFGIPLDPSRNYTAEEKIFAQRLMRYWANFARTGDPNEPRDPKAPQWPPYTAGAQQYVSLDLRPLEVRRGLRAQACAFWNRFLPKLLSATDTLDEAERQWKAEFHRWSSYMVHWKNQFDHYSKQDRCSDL

Cholinesterase [18] = target: T3, Cholinesterase; assay: Inhibition of human BchE by Ellman's reagent based spectrophotometric analysis
Acetylcholinesterase [19] = target: T4, Acetylcholinesterase; assay: Inhibition of recombinant human AchE by Ellman's reagent based spectrophotometric analysis
Jurkat E6.1 = assay: Cytotoxicity against human Jurkat E6.1 cells assessed as reduction in cell viability incubated for 24 hrs by MTT assay; type: functional, cell-based; settings: Jurkat E6.1, 24 h
HL-60 [20] = assay: Cytotoxicity against human HL-60 cells assessed as reduction in cell viability incubated for 24 hrs by MTT assay; type: functional, cell-based; settings: HL-60, 24 h
A549 = assay: Antiproliferative activity against human A549 cells; type: functional, cell-based
MCF7 [21] = assay: Antiproliferative activity against human MCF7 cells; type: functional, cell-based
Candida albicans = assay: Antifungal activity against Candida albicans MTCC 183 by agar streak dilution method; type: functional
Aspergillus niger = assay: Antifungal activity Aspergillus niger MTCC 282 by agar streak dilution method; type: organism-based
LN-229 = assay: Anticancer activity against human LN-229 cells assessed as cell growth inhibition by MTS assay; type: functional
Z-138 = assay: Anticancer activity against human Z138 cells assessed as cell growth inhibition incubated for 72 hrs by CellTiter96 aqueous Non-Radioactive Cell Proliferation Assay; type: functional
MCF7 [22] = assay: Antiproliferative activity against human MCF7 cells assessed as cell growth inhibition incubated for 72 hrs by MTT assay; type: functional
CAPAN-1 = assay: Anticancer activity against human CAPAN-1 cells assessed as cell growth inhibition by MTS assay; type: functional
K562 = assay: Anticancer activity against human K562 cells assessed as cell growth inhibition incubated for 72 hrs by CellTiter96 aqueous Non-Radioactive Cell Proliferation Assay; type: functional
NCI-H460 = assay: Anticancer activity against human NCI-H460 cells assessed as cell growth inhibition incubated for 72 hrs by MTT assay; type: functional
HL-60 [23] = assay: Anticancer activity against human HL-60 cells assessed as cell growth inhibition incubated for 72 hrs by CellTiter96 aqueous Non-Radioactive Cell Proliferation Assay; type: functional
[24] = Anticancer activity against human DND41 cells assessed as cell growth inhibition incubated for 72 hrs by CellTiter96 aqueous Non-Radioactive Cell Proliferation Assay; type: functional
HCT-116 = assay: Anticancer activity against human HCT-116 cells assessed as cell growth inhibition incubated for 72 hrs by MTT assay; type: functional
[25] = tested on: Staphylococcus epidermidis; assay: Antibacterial activity against Staphylococcus epidermidis; type: functional
Pseudomonas mevalonii = assay: Antibacterial activity against Pseudomonas mevalonii; type: functional; settings: Pseudomonas sp. 'mevalonii'
Proteus vulgaris = assay: Antibacterial activity against Proteus vulgaris ATCC6380; type: functional
Bacillus subtilis [26] = assay: Antibacterial activity against Bacillus subtilis ATCC19659; type: functional
[27] = tested on: Mycolicibacterium smegmatis; assay: Antibacterial activity against Mycobacterium smegmatis; type: functional
Staphylococcus aureus [28] = assay: Antibacterial activity against Staphylococcus aureus; type: functional
Enterococcus faecalis = assay: Antibacterial activity against Enterococcus faecalis ATCC13047; type: functional
Pseudomonas aeruginosa [29] = assay: Antibacterial activity against Pseudomonas aeruginosa; type: functional
Escherichia coli [30] = assay: Antibacterial activity against Escherichia coli ATCC25922; type: functional
Klebsiella oxytoca = assay: Antibacterial activity against Klebsiella oxytoca ATCC8724; type: functional
Acetylcholinesterase [31] = target: T4, Acetylcholinesterase; assay: Inhibition of human AChE

Oc1ccccc1CNCCNc1ccnc2cc(Cl)ccc12
IC50 (Cholinesterase [1]): 30300 nM | IC50 (Acetylcholinesterase [2]): 1970 nM

CO[C@H]1/C=C/O[C@@]2(C)Oc3c(C)c(O)c4c(O)c(c(/C=N/N5CCN(C)CC5)c(O)c4c3C2=O)NC(=O)/C(C)=C\C=C\[C@H](C)[C@H](O)[C@@H](C)[C@@H](O)[C@@H](C)[C@H](OC(C)=O)[C@@H]1C [RIFAMPIN]
inhibition at 250 µg/mL [3]: 98%

CCN(CCCC(C)Nc1ccnc2cc(Cl)ccc12)CCNC(=O)C(F)(F)C1CCN(CC(O)C(F)(F)F)CC1 (stereo not drawn)
CC50 at 48 h [4]: 16700 nM | IC50 [5]: 720 nM | IC50 [6]: 1600 nM | IC50 [7]: 15900 nM

COc1cc(/C=C/C(=O)NCCCNc2cc(C)nc3ccccc23)ccc1OCc1ccccc1
IC50 (Cholinesterase [8]): 100 nM | IC50 (Acetylcholinesterase [9]): 2470 nM

COc1ccc(/C=C/C(=N/NC(N)=O)c2ccc(Nc3ccnc4cc(Cl)ccc34)cc2)cc1OC
MIC [10]: 1.56 µM (≈ 0.783 µg/mL)

CCCCCCOc1ccc(/C=N/Nc2cc(C)nc3ccc(Cl)cc23)cc1
MIC (Bacillus subtilis [11]): 12.5 µg/mL (≈ 31.6 µM) | MIC (Staphylococcus aureus [12]): 12.5 µg/mL (≈ 31.6 µM) | MIC (Escherichia coli [13]): 6.5 µg/mL (≈ 16.4 µM) | MIC (Pseudomonas aeruginosa [14]): 12.5 µg/mL (≈ 31.6 µM)

Cc1ccc(S(=O)(=O)NCCCCNc2c3c(nc4ccccc24)CCCC3)cc1
IC50 (Cholinesterase [15]): 131 nM

Cc1cc(C(=O)NNc2ccnc3cc(Cl)ccc23)c2ccccc2n1
MIC [16]: 42 µM (≈ 15.2 µg/mL) | inhibition at 250 µg/mL [3]: 98%

COc1cc(/C=C/C(=O)NCCNc2cc(C)nc3ccccc23)ccc1OCc1ccc(Br)cc1
IC50 (Cholinesterase [8]): 1180 nM | IC50 (Acetylcholinesterase [9]): 620 nM

CC(C)(C)c1ccc(/C=N/CCNc2c3c(nc4ccccc24)CCCCC3)c(C(C)(C)C)c1O
IC50 (Cholinesterase [15]): 419 nM | IC50 (Acetylcholinesterase [17]): 4030 nM

Clc1ccc2c(NCCCCCCCCNC34CC5CC(CC(C5)C3)C4)ccnc2c1
Ki (Cholinesterase [18]): 91 nM | Ki (Acetylcholinesterase [19]): 75 nM

COc1cc(/C=C/C(=O)c2cccc(Nc3ccnc4cc(Cl)ccc34)c2)cc(OC)c1OC
IC50 (Jurkat E6.1): 1930 nM | IC50 (HL-60 [20]): 2150 nM

COc1ccc(/C=C/C(=O)c2ccc(Nc3ccnc4cc(Cl)ccc34)cc2)c(OC)c1
IC50 (Jurkat E6.1): 10400 nM | IC50 (HL-60 [20]): 13500 nM

C=CC1(O)c2ccccc2Nc2c1c(-n1ccnc1)nc1ccc(Br)cc21 (stereo not drawn)
IC50 (A549): 690 nM | IC50 (MCF7 [21]): 540 nM

CCN(CCO)CCCC(C)Nc1ccnc2cc(Cl)ccc12 (stereo not drawn) [HYDROXYCHLOROQUINE]
IC50 [5]: 3510 nM | IC50 [6]: 16500 nM | IC50 [7]: 10000 nM

CCCOc1ccc(/C=N/Nc2cc(C)nc3ccc(Cl)cc23)cc1
MIC (Candida albicans): 12.5 µg/mL (≈ 35.3 µM) | MIC (Aspergillus niger): 25 µg/mL (≈ 70.7 µM)

Oc1ccccc1/C=N/CCCCCCNc1ccnc2cc(Cl)ccc12
IC50 (Cholinesterase [1]): 58400 nM | IC50 (Acetylcholinesterase [2]): 730 nM

C=C(CC(=O)OC)C(=O)NCCCCNc1ccnc2cc(Cl)ccc12
GI50 (LN-229): 1100 nM | GI50 (Z-138): 1900 nM | GI50 (MCF7 [22]): 800 nM | GI50 (CAPAN-1): 1300 nM | GI50 (K562): 8100 nM | GI50 (NCI-H460): 2000 nM | GI50 (HL-60 [23]): 1900 nM | GI50 [24]: 3100 nM | GI50 (HCT-116): 2000 nM

CCCCCOc1ccc(/C=N/Nc2cc(C)nc3ccc(Cl)cc23)cc1
MIC (Candida albicans): 25 µg/mL (≈ 65.5 µM) | MIC (Aspergillus niger): 12.5 µg/mL (≈ 32.7 µM)

CC1(C)CC[C@]2(C(=O)OCCNc3ccnc4ccc(Cl)cc34)CC[C@]3(C)C(=CC[C@@H]4[C@@]5(C)CC[C@H](O)C(C)(C)[C@@H]5CC[C@]43C)[C@@H]2C1
MIC [25]: 1250 µg/mL (≈ 1890 µM) | MIC (Pseudomonas mevalonii): 2500 µg/mL (≈ 3780 µM) | MIC (Proteus vulgaris): 2500 µg/mL (≈ 3780 µM) | MIC (Bacillus subtilis [26]): 2500 µg/mL (≈ 3780 µM) | MIC [27]: 1250 µg/mL (≈ 1890 µM) | MIC (Staphylococcus aureus [28]): 1250 µg/mL (≈ 1890 µM) | MIC (Enterococcus faecalis): 1250 µg/mL (≈ 1890 µM) | MIC (Pseudomonas aeruginosa [29]): 2500 µg/mL (≈ 3780 µM) | MIC (Escherichia coli [30]): 2500 µg/mL (≈ 3780 µM) | MIC (Klebsiella oxytoca): 1250 µg/mL (≈ 1890 µM)

S=C(NCCCCNc1c2c(nc3ccccc13)CCCC2)NCCc1c[nH]c2ccccc12
IC50 (Cholinesterase [15]): 76 nM | IC50 (Acetylcholinesterase [31]): 25 nM

CC1(C)CC[C@]2(C(=O)OCCOCCNc3ccnc4ccc(Cl)cc34)CC[C@]3(C)C(=CC[C@@H]4[C@@]5(C)CC[C@H](O)C(C)(C)[C@@H]5CC[C@]43C)[C@@H]2C1
MIC [25]: 2500 µg/mL (≈ 3540 µM) | MIC (Pseudomonas mevalonii): 1250 µg/mL (≈ 1770 µM) | MIC (Proteus vulgaris): 2500 µg/mL (≈ 3540 µM) | MIC (Bacillus subtilis [26]): 2500 µg/mL (≈ 3540 µM) | MIC [27]: 1250 µg/mL (≈ 1770 µM) | MIC (Staphylococcus aureus [28]): 2500 µg/mL (≈ 3540 µM) | MIC (Enterococcus faecalis): 1250 µg/mL (≈ 1770 µM) | MIC (Pseudomonas aeruginosa [29]): 2500 µg/mL (≈ 3540 µM) | MIC (Escherichia coli [30]): 1250 µg/mL (≈ 1770 µM) | MIC (Klebsiella oxytoca): 2500 µg/mL (≈ 3540 µM)

CCN(CCCC(C)Nc1ccnc2cc(Cl)ccc12)CCNC(=O)C(F)(F)C1CCN(C(=O)C2OC(OC)C3OC(C)(C)OC23)CC1 (stereo not drawn)
CC50 at 48 h [4]: 16900 nM | IC50 [5]: 1190 nM | IC50 [6]: 1870 nM | IC50 [7]: 4410 nM
